This passage reports IC50 results from patent US8975267B2, “Tricyclic pyrrolo derivatives, process for their preparation and their use as kinase inhibitors” (Nerviano Medical Sciences S.r.l., priority 2011, dated 2015).

The target of test [1] is PIM-1 (Homo sapiens (Human), UniProt P11309). The test can be described thus: Biochemical assay for inhibitors of PIM-1 kinase activity (trans-phosphorylation, Dowex). The settings on record: 200 microM ATP, 25 microM Aktide, 1 nM enzyme. The method, then: Biochemical Assay for Inhibitors of PIM-1 Kinase Activity
(§1) The inhibitory activity of putative kinase inhibitors and the potency of selected compounds were determined using a trans-phosphorylation assay.
(§2) Specific peptide or protein substrates are trans-phosphorylated by their specific ser-thr or tyr kinase in the presence of ATP traced with ^33P-γ-ATP, and in the presence of their own optimal buffer and cofactors.
At the end of the phosphorylation reaction, more than 98% unlabeled ATP and radioactive ATP is captured by an excess of the ion exchange dowex resin; the resin then settles down to the bottom of the reaction plate by gravity.
Supernatant is subsequently withdrawn and transferred into a counting plate, then evaluated by β-counting.
The buffer for PIM-1 assay was composed of HEPES 50 mM, at pH 7.5, with 10 mM MgCl2, 1 mM DTT, 3 microM NaVO3, and 0.2 mg/ml BSA
Full-length human PIM-1 was expressed and purified as described in Bullock A N, et al., J. Biol. Chem. 2005, 280, 41675-82.
ATP concentration: 200 microM
Enzyme concentration: 1 nM
Substrate concentration Aktide (Chemical Abstract Service Registry Number 324029-01-8): 25 microM
For IC50 determination, test compounds are received as a 1 mM solution in 100% DMSO and distributed into 96-well plates: compounds are then plated into the first column of a new 96-well plate (A1 to G1), 100 microL/well.
An automated station (Biomek FX, Beckman) is used for serial dilutions, producing 1:3 dilutions in 100% DMSO, from line A1 to A10, for all the compounds in the column. Moreover, 4-5 copies of daughter plates are prepared by reformatting 5 microL of this first set of 100% DMSO dilution plates into 384-deep well plates: one copy of these serial dilution plates with the test compounds is thawed on the day of study, reconstituted at the working concentration (3-fold the final concentration) with 162 microL/well of water and used for IC50 determination assays. In a standard experiment, the highest concentration (3×) of compounds is typically 30 microM, while the lowest one is typically 1.5 nM.
Each 384-well plate generates at least one curve of the standard inhibitor staurosporine and reference wells (total enzyme activity vs. no enzymatic activity) for evaluation of Z′ and signal to background (S/B) ratio.
384-well plates, V bottom (test plates) are prepared with 5 microL of compound diluted as previously described (3×) and then placed onto a PlateTrak 12 robotized station (Perkin Elmer; the robot has one 384-tip pipetting head for assay start, plus one 96-tip head for dispensing resin) together with one reservoir for Enzyme mix (3×) and one for ATP mix (3×).
Data are analyzed by an internally customized version of the “Assay Explorer” SW package, which provides sigmoidal fitting of the ten-dilution curves for IC50 determination in secondary assay/hit confirmation routines.

Test [2] has as its target MPS1 (Homo sapiens (Human), UniProt P33981). The test can be described thus: Biochemical assay for inhibitors of MPS1 kinase activity (trans-phosphorylation, Dowex). The settings on record: 15 microM ATP, 200 microM P38-βtide substrate, 5 nM MPS1. The protocol: Cloning, Expression and Purification of Recombinant MPS1 Full Length Protein.
MPS1 full length (corresponding to residues 2-857 of the full length sequence, see Swiss-Prot accession number P33981) was PCR amplified from the full-length human MPS1 gene present in house as clone pGEX4t_MPS1.
To get a fully activated enzyme, the protein was then subjected to auto-phosphorylation in presence of ATP 1 mM at 25° C. for 2 hours in kinase buffer (Hepes pH7.5 50 mM, MgCl2 2.5 mM, MnCl2 1 mM, DTT 1 mM, phosphatase inhibitors); ATP was then removed whit a desalting column.
Biochemical Assay for Inhibitors of MPS1 Kinase Activity
as §1, §2
At the end of the phosphorylation reaction, more than 98% unlabeled ATP and radioactive ATP is captured by an excess of the ion exchange dowex resin; the resin then settles down to the bottom of the reaction plate by gravity. Supernatant is subsequently withdrawn and transferred into a counting plate, then evaluated by β-counting.
The buffer for MPS1 assay was composed of HEPES 50 mM, at pH 7.5, with 2.5 mM MgCl2, 1 mM MnCl2, 1 mM DTT, 3 microM Na3VO4, 2 mM β-glycerophosphate and 0.2 mg/mL BSA.
The assay was run with a final concentration MPS1 of 5 nM, in the presence of 15 microM ATP and 1.5 nM ^33P-γ-ATP; the substrate was P38-βtide, used at 200 microM.
a) for percent inhibition studies (HTS), individual dilution plates at 1 mM are diluted at a 3× concentration (30 microM) in ddH2O (3% DMSO=final concentration) using a Beckman NX automated pipetting platform. The same instrument is used for distributing the diluted mother plates into the test plates. b) for IC50 determination (KSS platform), 100 microL of each compound at 1 mM in 100% DMSO are transferred from the original plate into the first column of another 96 well plate (A1 to G1); well H1 is left empty for the internal standard inhibitor, usually staurosporine.
An automated station for serial dilutions (Biomek FX, Beckman) is used for producing 1:3 dilutions in 100% DMSO, from line A1 to A10, and for all the seven compounds in the column. Moreover, 4-5 copies of daughter plates are prepared by reformatting 5 microL of this first set of 100% DMSO dilution plates into 384 deep well-plates: one copy of the daughter plates with the serial dilutions of test compounds will be thaw the day of the experiments, reconstituted at a 3× concentration with water and used in the IC50 determination assays. In a standard experiment, the highest concentration (3×) of all compounds is 30 microM, while the lowest one is 1.5 nM.
384-well plates, V bottom (test plates) are prepared with 5 microL of the compound dilution (3×) and then placed onto a PlateTrak 12 robotized station (Perkin Elmer; the robot has one 384-tips pipetting head for starting the assay plus one 96-tips head for dispensing the resin) together with one reservoir for the Enzyme mix (3×) and one for the ATP mix (3×).
At the start of the run, the robot aspirates 5 microL of ATP mix, makes an air gap inside the tips (2 microL) and aspirates 5 microL of MPS1 mix. The following dispensation into the plates allows the kinase reaction to start upon 3 cycles of mixing, done by the robot itself.
The robot incubates the plates for 60 minutes at room temperature, and then stops the reaction by pipetting 70 microL of dowex resin suspension into the reaction mix. Three cycles of mixing are done immediately after the addition of the resin.
Another mixing cycle is performed after all the plates are stopped, this time using normal tips: the plates are then allowed to rest for about one hour in order to maximize ATP capture. […]

The target of test [3] is PIM-2 (Homo sapiens (Human), UniProt Q9P1W9). The test can be described thus: PIM-2 kinase inhibition assay: Dowex technique. In kind it is biochemical. The settings on record: 4 microM ATP, 5 microM Aktide, 1.5 nM enzyme. The method, then: Method for PIM-2 Kinase Inhibition Assay: Dowex Technique
The buffer for PIM-2 assay was composed of HEPES 50 mM, at pH 7.5, with 1 mM MgCl2, 1 mM DTT, 3 microM Na3VO4, and 0.2 mg/mL BSA
Full-length human PIM-2 was expressed and purified as described in Fedorov O, et al., PNAS 2007 104, 51, 20523-28.
Enzyme concentration=1.5 nM
Aktide substrate (Chemical Abstract Service Registry Number 324029-01-8)=5 microM
See above: same procedure as described for PIM-1.

MPS1, sequence (P33981 2-857): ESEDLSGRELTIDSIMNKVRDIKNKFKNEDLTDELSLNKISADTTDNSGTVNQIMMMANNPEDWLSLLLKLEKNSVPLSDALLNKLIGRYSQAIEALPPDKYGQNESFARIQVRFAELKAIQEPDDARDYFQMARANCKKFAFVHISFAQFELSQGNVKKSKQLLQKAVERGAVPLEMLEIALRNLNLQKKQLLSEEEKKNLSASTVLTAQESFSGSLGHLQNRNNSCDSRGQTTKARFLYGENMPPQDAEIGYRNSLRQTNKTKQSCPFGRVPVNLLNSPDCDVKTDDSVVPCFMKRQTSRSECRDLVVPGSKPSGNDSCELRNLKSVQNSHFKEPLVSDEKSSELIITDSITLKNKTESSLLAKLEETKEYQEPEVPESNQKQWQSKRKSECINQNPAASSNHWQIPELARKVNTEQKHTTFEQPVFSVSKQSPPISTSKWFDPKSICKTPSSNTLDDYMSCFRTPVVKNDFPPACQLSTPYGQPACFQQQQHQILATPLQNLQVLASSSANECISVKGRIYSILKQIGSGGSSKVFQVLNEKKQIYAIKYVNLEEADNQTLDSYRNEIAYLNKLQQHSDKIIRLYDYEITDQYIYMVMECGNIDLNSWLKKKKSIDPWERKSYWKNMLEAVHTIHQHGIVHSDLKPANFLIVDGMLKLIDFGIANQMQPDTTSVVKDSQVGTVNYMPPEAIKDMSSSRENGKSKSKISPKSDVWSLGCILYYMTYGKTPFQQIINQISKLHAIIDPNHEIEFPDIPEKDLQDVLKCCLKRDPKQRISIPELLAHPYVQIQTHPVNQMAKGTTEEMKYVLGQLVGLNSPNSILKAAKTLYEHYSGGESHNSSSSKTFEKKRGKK
PIM-1, sequence (P11309 whole entry): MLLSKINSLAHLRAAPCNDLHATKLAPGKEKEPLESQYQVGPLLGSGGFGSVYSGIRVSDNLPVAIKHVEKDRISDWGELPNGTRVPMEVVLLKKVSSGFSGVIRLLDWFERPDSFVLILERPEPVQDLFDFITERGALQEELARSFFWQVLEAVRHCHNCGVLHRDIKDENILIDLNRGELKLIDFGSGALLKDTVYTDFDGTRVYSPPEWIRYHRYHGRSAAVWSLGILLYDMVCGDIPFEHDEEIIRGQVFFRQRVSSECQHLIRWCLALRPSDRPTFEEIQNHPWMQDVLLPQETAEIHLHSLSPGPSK
PIM-2, sequence (Q9P1W9 whole entry): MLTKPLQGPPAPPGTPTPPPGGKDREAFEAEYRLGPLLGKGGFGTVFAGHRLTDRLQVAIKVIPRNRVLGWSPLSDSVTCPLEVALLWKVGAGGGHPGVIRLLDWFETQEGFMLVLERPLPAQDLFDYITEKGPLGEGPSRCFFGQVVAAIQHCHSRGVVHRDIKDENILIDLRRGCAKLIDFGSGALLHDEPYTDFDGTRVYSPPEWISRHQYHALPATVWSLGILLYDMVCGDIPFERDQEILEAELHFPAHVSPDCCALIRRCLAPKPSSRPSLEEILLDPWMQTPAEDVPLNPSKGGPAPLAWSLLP

In the case of `Cn1c2c(c(C(N)=O)c1-c1ccccc1)CCc1cnc(N)nc1-2` [compound 3, 2-amino-9-methyl-8-phenyl-6,9-dihydro-5H-pyrrolo[3,2-h]quinazoline-7-carboxamide, reference compound], the IC50 in test [1] was > 5 µM; in test [2] it was > 5 µM; in test [3] it was > 10 µM.
On to `Cn1c(-c2ccccc2)c(C(N)=O)c2ccc3cnc(N)nc3c21` [compound 4, 2-amino-9-methyl-8-phenyl-9H-pyrrolo[3,2-h]quinazoline-7-carboxamide, reference compound], for which the IC50 in test [1] is > 5 µM; in test [2], > 5 µM; in test [3], > 10 µM.

For orientation: IC50 means the concentration needed to halve the response being measured.
